{"source": "paper PMC10058022", "about": "“Physico-Chemical Study of Mn(II), Co(II), Cu(II), Cr(III), and Pd(II) Complexes with Schiff-Base and Aminopyrimidyl Derivatives and Anti-Cancer, Antioxidant, Antimicrobial Applications” (Molecules, 2023)", "key": {"[1]": {"assay": "DPPH free radical scavenging assay", "settings": "DPPH 0.004% w/v in methanol, absorbance 515 nm, 16 min, three replicates", "description": "The antioxidant activity of the extract was determined at the Regional Center for Mycology and Biotechnology (RCMB) at Al-Azhar University by the DPPH free radical scavenging assay in triplicate, and average values were considered.\nFreshly prepared (0.004% w/v) methanol solution of 2,2-diphenyl-1-picrylhydrazyl (DPPH) radical was prepared and stored at 10 °C in the dark. A methanol solution of the test compound was prepared. About 40 uL aliquot of the methanol solution was added to 3 mL of DPPH solution. Absorbance measurements were recorded immediately with a UV-visible spectrophotometer (Milton Roy, Spectronic 1201). The decrease in absorbance at 515 nm was determined continuously, with data being recorded at 1 min intervals until the absorbance stabilized (16 min). The absorbance of the DPPH radical without antioxidant (control) and the reference compound ascorbic acid were also measured. All the determinations were performed in three replicates and averaged. The percentage inhibition (PI) of the DPPH radical was calculated according to the formula:PI = [{(AC − AT)/AC} × 100] where AC = absorbance of the control at t = 0 min and AT = absorbance of the sample + DPPH at t = 16 min. A 50% inhibitory concentration (IC50) or the concentration required for 50% DPPH radical scavenging activity was calculated."}, "Candida albicans": {"test_system": "Candida albicans", "assay": "Antifungal screening, diffusion agar technique", "type": "cell-based", "settings": "ATCC10231; Candida albicans (ATCC 10231); well 6.0 mm, 100 μL tested; three replicates; ketoconazole 100 μg/mL", "description": "(§1) The complexes were tested in vitro using a diffusion agar technique; well diameter: 6.0 mm (100 μL tested) on four fungi (Aspergillus fumigatus (RCMB 002008), Candida albicans (RCMB 005003 (1) ATCC 10231), Cryptococcus neoformas (RCMB 0049001) and Syncephalastrum racemosum (RCMB 016001 (1)). The positive control was a fungicide (ketoconazole, 100 μg/mL) as well as four bacteria, two Gram-positive strains (Staphylococcus aureus (ATCC 25923) and Bacillus subtilis (RCMB 015 (1) NRRL B-543)), and two Gram-negative strains (Escherichia coli (ATCC 25922) and Proteus Vulgaris (RCMB 004 (1) ATCC 13315)). The positive control was Streptococcus (gentamycin, 4 μg/mL). The inhibitory activity of a compound against an organism is indicated by a clear area around the disc."}, "Aspergillus fumigatus": {"test_system": "Aspergillus fumigatus", "assay": "Antifungal screening, diffusion agar technique", "type": "cell-based", "settings": "RCMB002008; Aspergillus fumigatus (RCMB 002008); well 6.0 mm, 100 μL tested; three replicates; ketoconazole 100 μg/mL", "description": "as §1"}, "[2]": {"test_system": "Syncephalastrum racemosum", "assay": "Antifungal screening, diffusion agar technique", "type": "cell-based", "settings": "RCMB016001; Syncephalastrum racemosum (RCMB 016001); well 6.0 mm, 100 μL tested; three replicates; ketoconazole 100 μg/mL", "description": "as §1"}, "Cryptococcus neoformas": {"test_system": "Cryptococcus neoformas", "assay": "Antifungal screening, diffusion agar technique", "type": "cell-based", "settings": "RCMB0049001; Cryptococcus neoformas (RCMB 0049001); well 6.0 mm, 100 μL tested; three replicates; ketoconazole 100 μg/mL", "description": "as §1"}, "[3]": {"test_system": "A-549 cells (human lung cancer cell line)", "assay": "Cytotoxicity against A-549 cells (crystal violet colorimetric viability, 72 h)", "type": "cell-based", "settings": "A-549 human lung cancer cell line, 72 h exposure, average of three independent experiments", "description": "Cancer is a type of malignant disease in which a group of cells appears to grow in an irregular pattern. The only way to treat this is through surgical intervention or chemotherapy, both of which have negative side effects. Although platinum-based complexes such as cis-platin have been used to treat cancer, it is not effective, so in vitro tests for complexes of manganese, cobalt, copper, chromium, and palladium were conducted against two cancer lines, respectively. A-549 and MRC-5 cells were used as test subjects for the cytotoxic activity of Schiff base and aminopyrimidyl complexes in the concentration range of […]. […] As the concentration of the complexes increased, cell viability decreased (Figure 10).\nFigure 10 (a) A-549. The dose-response curves of the cytotoxicity of compounds (1–6). Cells were exposed to different concentrations of the compounds for 72 h. Cell viability was determined by a colorimetric method. (b) MRC-5cell lines. The dose-response curves of the cytotoxicity of compounds (1–6) Cells were exposed to different concentrations of the compounds for 72 h. Cell viability was determined by a colorimetric method.\nA-549 cells (human Lung cancer cell line) were obtained from VACSERA Tissue Culture Unit.\nIt is composed of 0.5% (w/v) crystal violet and 50% methanol then made up to volume with ddH2O and filtered through a Whatmann No.1 filter paper. […]"}, "Escherichia coli": {"test_system": "Escherichia coli", "assay": "Antibacterial screening, diffusion agar technique", "type": "cell-based", "settings": "Escherichia coli (ATCC 25922), Gram-negative; well 6.0 mm, 100 μL tested; three replicates; gentamycin 4 μg/mL", "description": "as §1"}, "Bacillus subtilis": {"test_system": "Bacillus subtilis", "assay": "Antibacterial screening, diffusion agar technique", "type": "cell-based", "settings": "Bacillus subtilis (NRRL B-543), Gram-positive; well 6.0 mm, 100 μL tested; three replicates; gentamycin 4 μg/mL", "description": "as §1"}, "Staphylococcus aureus": {"test_system": "Staphylococcus aureus", "assay": "Antibacterial screening, diffusion agar technique", "type": "cell-based", "settings": "Staphylococcus aureus (ATCC 25923), Gram-positive; well 6.0 mm, 100 μL tested; three replicates; gentamycin 4 μg/mL", "description": "as §1"}, "Proteus vulgaris": {"test_system": "Proteus vulgaris", "assay": "Antibacterial screening, diffusion agar technique", "type": "cell-based", "settings": "Proteus vulgaris (ATCC 13315), Gram-negative; well 6.0 mm, 100 μL tested; three replicates; gentamycin 4 μg/mL", "description": "as §1"}}, "data": [{"compound": "O=C1O[C@H]([C@@H](O)CO)C(O)=C1O", "note": "[Ascorbic acid, reference compound]", "values": [{"measurement": "IC50 (antioxidant activity, DPPH radical scavenging)", "setting": "[1]", "result": "10210 ± 770", "unit": "µg/mL"}]}, {"compound": "CC(=O)N1CCN(c2ccc(OCC3COC(Cn4ccnc4)(c4ccc(Cl)cc4Cl)O3)cc2)CC1", "note": "(stereo not shown) [Ketoconazole, reference compound]", "values": [{"measurement": "zone of inhibition at 100 µg/mL", "setting": "Candida albicans", "result": 20.4, "unit": "mm"}, {"measurement": "zone of inhibition at 100 µg/mL", "setting": "Aspergillus fumigatus", "result": 17.4, "unit": "mm"}, {"measurement": "zone of inhibition at 100 µg/mL", "setting": "[2]", "result": 15.3, "unit": "mm"}, {"measurement": "zone of inhibition at 100 µg/mL", "setting": "Cryptococcus neoformas", "result": 24.9, "unit": "mm"}]}, {"compound": "N.N.[Cl][Pt][Cl]", "note": "[cisplatin, reference compound]", "values": [{"measurement": "IC50 Value", "setting": "[3]", "result": 7.11, "unit": "µg/mL"}]}, {"compound": "Gentamycin [reference compound]", "values": [{"measurement": "Mean Zone of Inhibition", "setting": "Escherichia coli", "result": 29.83, "unit": "mm"}, {"measurement": "Mean Zone of Inhibition", "setting": "Bacillus subtilis", "result": 25.93, "unit": "mm"}, {"measurement": "Mean Zone of Inhibition", "setting": "Staphylococcus aureus", "result": 24.33, "unit": "mm"}, {"measurement": "Mean Zone of Inhibition", "setting": "Proteus vulgaris", "result": 25.20, "unit": "mm"}]}]}
